Experimental data published in patent US9359338B2, “Cyclopropanecarboxamido-substitute aromatic compounds as anti-tumor agents” (Crown Bioscience Inc. (Taiwan), priority 2012, dated 2016).
pIC50: −log10 of the molar value.

Tests used:
[1] = system: pERK in MDA-MB-231 cells; test: Inhibitory activity at pERK (In Cell Western, MDA-MB-231 cells); type: cell-based; settings: Homo sapiens, MDA-MB-231, MDA-MB-231 cells; read-out: MDA-MB-231 pERK IC50
Protocol: Inhibitory Activity of Compounds at pERK
When the cells reach 80% confluency, collect cells by trypsinization and centrifugation at 800 rpm for 3 minutes. Resuspend cells with appropriate volume of medium and count cell numbers. Adjust cell concentration to 70000 cells/mL, and split 100 μL cell suspension per well into 96-well plates. Transfer the plates into cell culture incubator (37° C., 5% CO2) and incubate cells overnight. Discard the medium, wash with PBS once, Prepare compound serial dilutions in culture medium with total 8 compound concentrations at 3-fold serial dilutions (the final top concentration starts from 30 μM). Dispense 75 μL DMEM medium (with 0.1% BSA) and 25 μL of each test compound dilution into corresponding wells with DMSO at 0.3% final concentration. Continue incubating cells in cell culture incubator for additional 2 hrs at 37° C., 5% CO2. Discard culture medium, and wash cells once with PBS. Add 100 μL of 4% formaldehyde solution to each well and fix for 20 min. Discard the formaldehyde, then add 100 μL ice-cold 100% methanol at 4° C. for 20 min. Discard methanol, wash with PBS three times. Add to each well 100 μL of 2% BSA solution, seal for 30 min at room temperature. Discard the BSA solution, add to each well 50 μL of the 1st antibody solution (prepared with 2% BSA, 1:250 dilution), incubate at 4° C. overnight. Discard the 1^St antibody solution, wash with PBS four times. Add to each well […] the 2nd antibody solution (prepared with 1% BSA, 1:1000 dilution), incubate at room temperature for 1 hr. Discard the 2nd antibody solution, wash with PBS four times, add to each well 100 μL PI solution (1.5 μM), incubate at room temperature for 30 min. Use Acumen (TPP) to measure the fluorescence. • [Samples]: Compounds in the examples and sorafenib (positive control) • [Data Analysis]: Use CBIS data analysis software to calculate IC50 values

[2] = target: KDR kinase (790-1356 AA) (Homo sapiens (Human), UniProt P35968); test: Inhibitory activity at KDR kinase (Lance Ultra Ulight-TK assay); type: biochemical
Protocol: Inhibitory Activity of Compounds at KDR Kinase
• [Experimental method]: Use Lance@Ultra Ulight™-TK assay kit from PerKinElmer to evaluate the inhibitory activity of compounds at KDR kinase. • [Instrument]: PerKinElmer's ENVISION plate reader • [Materials]: Optiplate-384 well plate (PerKinElmer), kinase buffer (50 mM Hepes pH7.5, 0.25 mM EGTA, 2 mM DTT, 0.01% Tween 20, 10 mM Mg^2+, 0.5 mM Mn^2+), KDR kinase (790-1356 AA, Crown Bioscience), KDR kinase substrate (PerKinElmer catalogue # TRF0127-M), Lance@Eu-W1024-anti-phosphotyrosine (PT66) (PerKinElmer, catalogue #AD0068), ATP (Invitrogen), DMSO (Sigma, catalogue #34869), purified water (Millipore, type: Milli-Q). • [Study conditions]: Mix KDR (final concentration: 20 nM) and compound (final DMSO: 0.5%), pre-incubate for 20 min at 30° C.; then add ATP (final concentration: 90 μM) and the substrate (final concentration […]). React for 2 hrs at 30° C. After the reaction, add antibody and reaction for 60 min at 30° C. Read the plate (615 nm, 665 nm), calculate the ratio of the value at 665 nm vs 615 nm and analyze the data. • [Samples]: Compounds in the examples and Sorafenib (positive control) • [Data Analysis]: Use CBIS data analysis software to calculate IC50 values

[3] = system: PLC-PRF-5 cells; test: Inhibition of proliferation of PLC-PRF-5 cells (ATPlite); type: cell-based; settings: Homo sapiens, PLC-PRF-5, PLC-PRF-5 cells; read-out: PLC-PRF-5 cell proliferation IC50
Text: Inhibitory Activity of Compounds to the Proliferation of PLC-PRF-5 Cells
• [experimental Method]: Use PerKinElmer's ATPlite™ Luminescence ATP Detection Assay System to evaluate the inhibitory activity of compounds to the proliferation of PLC-PRF-5 cells. • [Instruments]: ENVISION plate reader (PerKinElmer) and centrifuge (Thermo Scientific, Sorvall ST16R) • [material]: PLC-PRF-5 cells (ATCC), 96-well plate (Nunc, #165305), DMEM medium (Gibco, #11965-092), PBS (Invitrogen, #10010023), fetal bovine serum (Gibco, #16000044), DMSO (Sigma, #D2650), ATPlite™ Luminescence ATP Detection Assay System (PerkinElmer, #6016949), purified water (Millipore, type: Milli-Q). • [Protocol]: Grow PLC-PRF-5 cells in DMEM supplemented with 10% FBS. When the cells reach 80% confluency, collect cells by trypsinization and centrifugation at 800 rpm for 3 min. Resuspend cells with appropriate volume of medium and count cell numbers. Adjust cell concentration to 50000 cells/mL, and split 160 μL cell suspension per well into 96-well plates. Transfer the plates into cell culture incubator (37° C., 5% CO2) and incubate cells for 2 hrs. Prepare compound serial dilutions in culture medium with total 8 compound concentrations at 3-fold serial dilutions (the final top concentration starts from 30 μM). Dispense 40 μL of each test compound dilution into corresponding wells with DMSO at 0.3% final concentration. Continue incubating cells in cell culture incubator for additional 96 hrs at 37° C., 5% CO2. Discard culture medium, and wash cells once with PBS. Add 50 μL cell lysis buffer per well and shake plates for 5 min at room temperature to ensure complete lysis of cells. Then add 50 μL of substrate solution and shake plates for 1 min at room temperature. Allow the plates to incubate at room temperature for 5 min, followed by recording the luminescence signals using Envision, and subsequent data analysis. • [Samples]: Compounds in the examples and Sorafenib (positive control) • [Data analysis]: Use CBIS data analysis software to calculate IC50 values

Chain of KDR kinase (790-1356 AA) (P35968 790-1356): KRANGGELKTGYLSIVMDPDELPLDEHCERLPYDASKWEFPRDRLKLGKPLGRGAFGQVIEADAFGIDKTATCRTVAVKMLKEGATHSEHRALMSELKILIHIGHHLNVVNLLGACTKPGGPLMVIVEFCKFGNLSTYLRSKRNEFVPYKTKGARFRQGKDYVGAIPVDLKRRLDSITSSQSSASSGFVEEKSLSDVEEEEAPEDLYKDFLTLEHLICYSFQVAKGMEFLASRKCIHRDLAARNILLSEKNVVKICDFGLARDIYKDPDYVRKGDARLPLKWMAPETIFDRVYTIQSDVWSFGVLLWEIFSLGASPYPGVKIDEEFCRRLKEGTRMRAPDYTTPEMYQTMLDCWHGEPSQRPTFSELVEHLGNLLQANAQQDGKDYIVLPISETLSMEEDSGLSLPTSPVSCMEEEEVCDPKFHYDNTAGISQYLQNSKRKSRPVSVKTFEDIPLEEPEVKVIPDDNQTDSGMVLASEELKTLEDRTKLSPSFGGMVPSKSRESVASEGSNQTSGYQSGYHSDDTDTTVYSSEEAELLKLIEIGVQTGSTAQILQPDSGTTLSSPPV

| Structure (SMILES) | pIC50 [1] | pIC50 [2] | pIC50 [3] |
| --- | --- | --- | --- |
| Cc1cc(NC(=O)Nc2cccc(C(F)(F)F)c2)cc(Oc2cc(NC(=O)C3CC3)ncn2)c1 [Exe. 094] | 6.79 | 6.70 | 4.72 |
| O=C(Nc1cccc(C(F)(F)F)c1)Nc1ccc(Oc2ccnc(NC(=O)C3CC3)c2)cn1 [Exe. 135] | 6.68 | 8.24 | 7.00 |
| Cc1cc(Oc2cc(NC(=O)C3CC3)ncn2)ccc1NC(=O)Nc1ccc(F)c(OC(F)(F)F)c1 [Exe. 081] | 6.98 | 7.88 | 4.80 |
| O=C(Nc1ccc(Oc2cc(NC(=O)C3CC3)ncn2)c(Cl)c1)Nc1ccc(F)c(C(F)(F)F)c1 [Exe. 088] | 6.97 | 7.94 | 5.69 |
| O=C(Nc1ccc(Oc2cc(NC(=O)C3CC3)ncn2)cc1)Nc1ccc(F)c(C(F)(F)F)c1 [Exe. 100] | 6.52 | 8.05 | 5.62 |
| Cc1cc(Oc2cc(NC(=O)C3CC3)ncn2)ccc1NC(=O)Nc1ccc(F)c(C(C)(F)F)c1 [Exe. 071] | 7.00 | 7.88 | 4.69 |
| O=C(Nc1cccc(C(F)(F)F)c1)Nc1ccc(Oc2cc(NC(=O)C3CC3)ncn2)c(F)c1 [Exe. 102] | 6.53 | 7.82 | 6.03 |
| Cc1cc(Oc2cc(NC(=O)C3CC3)ncn2)ccc1NC(=O)Nc1cccc(C(C)(F)F)c1 [Exe. 084] | 6.91 | 7.91 | 5.23 |
| Cc1cc(Oc2cc(NC(=O)C3CC3)ncn2)ccc1NC(=O)Nc1cc(NC2CCN(C)CC2)cc(C(F)(F)F)c1 [Exe. 076] | 7.08 | 7.90 | 5.25 |
| O=C(Nc1cc(NC2CCNCC2)cc(C(F)(F)F)c1)Nc1ccc(Oc2ccnc(NC(=O)C3CC3)c2)c(F)c1 [Exe. 069] | 6.47 | 7.77 | 4.98 |

The next molecules have a higher pIC50 [1] than those just listed; values first:

| pIC50 [1] | pIC50 [2] | Structure (SMILES) | pIC50 [3] |
| --- | --- | --- | --- |
| 8.05 | 8.16 | Cc1ccc(Oc2ccnc(NC(=O)C3CC3)c2)cc1NC(=O)Nc1ccc(F)c(C(F)(F)F)c1 [Exe. 223] | 5.46 |
| 8.14 | 7.97 | O=C(Nc1cncc(C(F)(F)F)c1)Nc1ccc(Oc2ccnc(NC(=O)C3CC3)c2)cc1F [Exe. 213] | 7.10 |
| 7.55 | 7.88 | Cc1cc(Oc2cc(NC(=O)C3CC3)ncn2)ccc1NC(=O)Nc1ccc(NC2CCN(C)CC2)c(C(F)(F)F)c1 [Exe. 078] | 6.06 |
| 7.81 | 8.27 | O=C(Nc1ccc(Cl)c(C(F)(F)F)c1)Nc1cc(Oc2cc(NC(=O)C3CC3)ncn2)ccc1F [Exe. 002, N-[6-[3-[[4-chloro-3-(trifluoromethyl)phenyl]carbamoyl-amino]-4-fluoro-phenoxy]pyrimidin-4-yl]cyclopropanecarboxamide] | 5.47 |
| 7.39 | 8.15 | Cc1cc(NC(=O)Nc2ccc(F)c(C(F)(F)F)c2)ccc1Oc1cc(NC(=O)C2CC2)ncn1 [Exe. 111] | 5.58 |
| 7.96 | 8.04 | Cc1ccc(Oc2ccnc(NC(=O)C3CC3)c2)cc1NC(=O)Nc1cccc(C(F)(F)F)c1 [Exe. 226] | 5.45 |
| 7.97 | 8.00 | Cc1ccc(NC(=O)Nc2ccc(Oc3ccnc(NC(=O)C4CC4)c3)cc2)cc1C(F)(F)F [Exe. 140] | 6.64 |
| 7.33 | 7.91 | O=C(Nc1ccc(Oc2ccnc(NC(=O)C3CC3)c2)c(F)c1)Nc1ccc(C(F)(F)F)c(Cl)c1 [Exe. 185] | 5.83 |
| 8.30 | 8.25 | CC(F)(F)c1cncc(NC(=O)Nc2ccc(Oc3ccnc(NC(=O)C4CC4)c3)cc2F)c1 [Exe. 033] | 7.46 |
| 8.34 | 8.03 | Cc1cc(Oc2ccnc(NC(=O)C3CC3)c2)ncc1NC(=O)Nc1ccc(Cl)c(C(F)(F)F)c1 [Exe. 018] | 5.39 |
| 7.44 | 7.89 | Cc1cc(Oc2cc(NC(=O)C3CC3)ncn2)ccc1NC(=O)Nc1cc(N2CCOCC2)cc(C(F)(F)F)c1 [Exe. 087] | 5.30 |
